We go through one substance from patent US20050180982A1, “Cadherin-11 expression, an assay and treatment for cellular invasiveness” (THE UNIVERSITY OF BRITISH COLUMBIA, priority 1998, published 2005).

Data set [1] concerns cad-11 RNA transcript in human granulosa cells. The data set is described as follows: Specificity of antisense in granulosa cells, Northern blot, cad-11 probe. In kind it is cell-based. Also on record: dose or concentration left out as unconfirmed. As to conditions: 24 hours, dose-dependent manner for OB-1. The method, then:
(§1) In order to determine the specificity of OB-1, the effect of OB-1 was determined in human granulosa cells. Human granulosa cells express three cadherin subtypes (cad-11, cad-6 and N-cad) as they undergo spontaneous luteinization in culture. Granulosa cells which had been cultured for 36 hours were treated with OB-1 or OB-3 (0.5-5 M). The cultures were maintained for a further 24 hours, after which the cells were harvested for Northern analysis. Northern blots were probed with cad-11, cad-6, or N-cadherin (neural cadherin) cDNA probes as previously described. OB-1 caused a reduction in the levels of the cad-11 RNA transcript in a dose-dependent manner but had no effect on cad-6 or N-cadherin mRNA levels. In contrast.

Data set [2] has as its system cad-6 mRNA in human granulosa cells. The data set is described as follows: Specificity of antisense in granulosa cells, Northern blot, cad-6 probe. Type of data set: cell-based. As to conditions: 0.5-5 M, 24 hours. The method, then: as §1
Data set [3] deals with N-cadherin mRNA in human granulosa cells. The data set can be described thus: Specificity of antisense in granulosa cells, Northern blot, N-cadherin probe. In kind it is cell-based. As to conditions: 0.5-5 M, 24 hours. The method, then: as §1
Data set [4] concerns Cos-1 cells transfected with the steroid acute regulatory protein. The data set can be described thus: Non-specific effects on cell number and steroidogenic capacity in Cos-1 cells. In kind it is cell-based. Also on record: cell number (Coulter cell counter): dose or concentration left out as unconfirmed. The procedure: Non-specific effects of the antisense oligonucleotides on cell viability and the steroidogenic capacity of cells was determined using Cos-1 cells transfected with the steroid acute regulatory protein (from Dr. J. F. Strauss, III. University of Pennsylvania, Philadelphia, Pa.). […] The COS-1 cells were cultured in the presence or absence of varying concentrations of OB-1 OR OB-3 (0.5-5 M) for 48 hours. The cell number present in each culture was determined using a Coulter™ cell counter and P4 concentrations present in the culture medium using a Progesterone RIA™ kit. As determined by these parameters.

Data set [5] relates to cad-11 in cytotrophoblasts isolated from term placenta. The data set can be described thus: Western blot of cad-11 in term placenta cytotrophoblasts treated with oligonucleotide. In kind it is cell-based, human. As to conditions: 5 NI, further 24 or 48 hours. The procedure: (§2) Cellular aggregation in these cultures is observed after approximately 12 hours, with syncytial structures being observed after approximately 24 hours. After 72 hours, multinucleated syncytium is the predominant cell feature in these cultures. As described above, the terminal differentiation and fusion of these cells is associated with an increase in cad-11 mRNA and protein expression levels and a concomitant decrease in E-cad expression.
(§3) The effects of OB-1 on the differentiation of these trophoblasts isolated from term placenta was determined. Cytotrophoblasts were cultured for 0, 6, 12 or 24 hours before being treated with either OB-1 or OB-3 (5 NI). The cultures were maintained for a further 24 or 48 hours, after which the cells were harvested for Western blot analysis.

For data set [6], the system named is E-cad in cytotrophoblasts isolated from term placenta. The data set is described as follows: Western blot of E-cad in term placenta cytotrophoblasts treated with oligonucleotide. As to conditions: 5 NI, further 24 or 48 hours. In kind it is cell-based, human. The method, then:
as §2, §3
Background: A western blot detects proteins with antibodies after separation by electrophoresis.

Data set [7] relates to cytotrophoblasts isolated from term placenta. The data set can be described thus: Morphology of cytotrophoblasts by light microscopy and indirect immunofluorescence. Type of data set: cell-based, human. The source says:
The effect of OB-1 and OB-3 on the morphology of the cytotrophoblast was examined by light microscopy and indirect immunofluoresence.

Data set [8] has as its system villous cytotrophoblasts. The data set can be described thus: P4 and hCG in culture medium of villous cytotrophoblasts (functional differentiation). In kind it is cell-based, human. As to conditions: compared with OB-3 treated cells. The method, then: To determine whether reduced cad-11 expression in villous cytotrophoblasts would affect the functional differentiation of the primary cell cultures, concentrations of P4 and hCG were measured in the culture medium. The number of cells present in these cell cultures was determined by DNA content.

The subject of data set [9] is villous cytotrophoblasts. The data set is described as follows: Reversibility of oligonucleotide effects on villous cytotrophoblasts. As to conditions: 48 hours with oligonucleotide, washed, further 24 hours. In kind it is cell-based, human. The method, then:
To determine whether the effects of OB-1 on villous cytotrophoblasts are reversible, cells were cultured in the presence of OB-1 or OB-3 for 48 hours. The cells were washed thoroughly with PBS. The culture medium was then replaced and the cells cultured for a further 24 hours. […] The majority of cells (90%) detached from the culture and dish. Cad-11 was not detected in the remaining cells.

Data set [10] relates to BeWo choriocarcinoma cells. The data set is described as follows: BeWo choriocarcinoma cells cultured with cAMP, differentiation and fusion. Type of data set: cell-based.
Data set [11] concerns cad-11 in decidual explants. The data set is described as follows: Western blot of cad-11 in decidual explants. Type of data set: cell-based, human. Also on record: dose or concentration left out as unconfirmed. The procedure:
Co-cultures of decidua parietalis and villous placenta were established on a three-dimensional gel of rat tail collagen. The decidua and the villous tissue were cut into 1-2 mm cubes, explants were placed in 35 nun culture dishes containing 0.1 ml of the collagen mixture. After the gel had formed, a piece of villous tissue, suspended in 0.05 ml of culture medium was placed on to the exposed decidual surface. After 2 hours, the plates were flooded with culture medium. Stable adhesion between the villous and decidual tissues occurred within 48 hours. Samples are harvested after 48, 72, or 96 hours of culture. Tissues were embedded in OCT compound, snap frozen, and frozen section prepared. Blocks containing the co-cultures were cut in-full in order to obtain information about the three dimensional aspect of the contact sites. Contact sites were identified by hematoxylin staining and confirmed by immunostaining for cytokeratin. In the areas of contact, there was cytotrophoblast layering leading to localized erosion of the syncytial trophoblast and the formation of an extravillous column, which penetrates the underlying decidual explant.
In order to determine whether the cad-11 antisense oligonucleotides could decrease cad-11 expression in tissue explants, decidual explants were cultured in the presence of OB-1 or OB-3 (5 M) for 24 hours.

Data set [12] relates to Villous cytotrophoblasts isolated from the human term placenta, cultured 72 hours.
For data set [13], the system named is human decidual cells.
Data set [14] concerns PC3 cells treated with TGF-1.
Data set [15] has as its system human decidual cells. The data set is described as follows: Effect on primary cultures of human decidual cells. Also on record: cell interactions and attachment: dose or concentration left out as unconfirmed. As to conditions: for 24 hours.
Data set [16] deals with PC3 cells treated with TGF-1. The data set can be described thus: Effect of oligonucleotides on PC3 cells treated with TGF-1. Also on record: cell interactions and attachment: dose or concentration left out as unconfirmed. As to conditions: for 24 hours.

As to “OB-1: cad-11 antisense oligonucleotide, 18 mer, phosphothiorate: GGC GGC TTG TAA ACA GTA (SEQ ID NO:1) (antisense GGCGGCTTGTAAACAGTA; all phosphorothioate, sugars by position and methylation of C not given here; listed as Homo sapiens)”, the “levels of the cad-11 RNA transcript” value in data set [1] is “reduction”. Also, the “cad-6 mRNA levels” value in data set [2] is on record as “no effect”. Besides, the “N-cadherin mRNA levels” value in [3] is reported as “no effect”. Further, in data set [4] (0.5-5 M for 48 hours), the “steroidogenic capacity (P4 concentrations in culture medium, RIA)” value is listed as “did not have a significant effect”. Moreover, the “cell number (Coulter cell counter)” value in data set [4] (for 48 hours) is listed as “did not have a significant effect”. Also, the “cad-11 expression with time in culture” value in data set [5] is “failed to up-regulate”. Further, the E-cad levels entry in [6] is on record as “remained constant”. The “composition of cellular structures formed (fusion)” value in data set [7] (indirect immunofluorescence for E-cadherin) is recorded as “mononucleate cytotrophoblasts”. Also, the “ability of the cytotrophoblasts to aggregate” value in [7] (light microscopy) is “did not appear to affect”. Further, in [8], the “levels of P4 in the culture medium” value is reported as “significantly lower” and the “levels of hCG in the culture medium” value was “significantly lower”. In data set [9], the “cad-11 in the remaining cells” value is “not detected”, the “cell viability after wash-out” value was “no longer viable” and the “cells detached from the culture dish” value worked out at 90%. Further, in [10] (cells cultured in the presence of cAMP for 12 hours), the “cellular differentiation and fusion” value was “inhibiting cellular differentiation and fusion”. Also, in [10] (syncytial structures formed after 24 hours of cAMP), the “membrane integrity of the syncytial structures” value is given as “disrupted the membrane integrity”. For the same substance, the cad-11 expression entry in [11] is “significantly reduced”. Moreover, in data set [12], the “viability of syncytial structures (trypan blue)” value is given as “no longer viable”. Also, the “structures observed (phase contrast microscopy)” value in data set [12] (oligonucleotide added after 72 hours of culture, OB-1 for 24 hours) was “cellular debris”. The “viability by trypan blue staining” value in [13] is recorded as “no longer viable”. Moreover, the “viability by trypan blue staining” value in data set [14] was “no longer viable”. In addition, the “cell interactions and attachment” value in data set [15] was “lose interactions with one another and detach from the plastic in a dose-dependent manner”. Further, in [16], the “cell interactions and attachment” value was “lose interactions with one another, and detach from the plastic in a dose-dependent manner”.
